The source of these data is US10526416B2, “Anti-HER3 antibodies and uses of same” (Yeda Research and Development Co. Ltd., priority 2014, dated 2020).

In one data set the test system is H1975 NSCLC cells. The data set is described as follows: H1975 NSCLC tumor growth in CD1-nu/nu mice. The data set is classed as in vivo.
For another data set, the system named is EGFR phosphorylation. Description: Western blot of EGFR phosphorylation in PC9ER-AZDR cells. The data set is classed as cell-based, human. Conditions: 6 hours, 1 μM.
Another data set has as its system PC9ER-AZDR cells. Description: MTT assay on PC9ER-AZDR cells. The conditions noted are these: 72 hours treatment.
A further data set has as its target T1, IgB3 (Homo sapiens, UniProt P21860).
T1 construct: To produce IgB3 (recombinant HER3 extracellular domain fused to a human IgG Fc domain); made in house
Description: Antibody competition assay with Lumi4(Tb)-labeled NG33 on IgB3-coated plates. The data set is classed as binding. The conditions noted are these: NG33-K2 1 nM. How it is done: FIGS. 12A-D show a combination of two mAbs directed to two different epitopes of HER3. (FIGS. 12A and 12B) The antibodies NG33 and XC252 were labeled with the fluorescent dye Lumi4® Tb Cryptate (K2). 96 well-plate were coated with IgB3 (1.5 μg/ml), blocked with PBS-BSA and incubated for 1 h with various concentrations of mAbs under gentle shaking at RT. The labeled mAb, NG33-K2 (FIG. 12A) or XC252-K2 (FIG. 12B), was then added at 1 nM final concentration. After ah incubation, the plate was washed 4 times with KREBS buffer, and the fluorescence intensity at 610 nm was measured using a fluorescence microplate reader. (FIG. 12C) The various anti-HER3 mAb combinations were studied for their ability to trigger HER3 degradation using N87 cells. Cells were treated for 2 h at 37° C. with mAb (10 μg/ml). After cell lysis and protein extraction, the samples were subjected to immunoblotting with the indicated antibodies. (FIG. 12D) The combination's capacity to modulate NRG-induced phosphorylation of HER3, AKT and ERK was evaluated using N87 cells. After 20 min treatment at 37° C. with 10 μg/ml of mAbs, NRG (20 ng/ml) was added to the cells for 10 min. The cells were then lysed, and equal quantities of lysate protein were electrophoresed before immunoblotting, as indicated.
Agent labeling was performed by Cisbio. […] Following 1 h incubation, the plate was washed 4 times with KREBS buffer (146 mM NaCl, 4 mM KCl, 0.5 mM MgCl2, 1 mM CaCl2, 10 mM Hepes, 1 gr/L glucose, and 1 mg/mL albumin), and the fluorescent intensity (excitation: 488 nm, emission: 610 nm) was measured using a fluorescence microplate reader. […] Finally, following two washes with KREBS buffer, the fluorescence intensity was measured at 670 nm (excitation: 620 nm).
Combinations of antibodies directed against two different epitopes of the same receptor, as has been previously shown, can improve the effect of treatment with a single mAb (28, 29). […] First, it was determined which antibody from the anti-HER3 series targets an epitope distinct from that targeted by NG33. […]

The next data set relates to BxPC3 xenografts. The data set is described as follows: BxPC3 cell xenografts in CD1-Nude mice. The data set is classed as in vivo. Conditions: 0.2 mg/injection IP every 3 days for 5 weeks, 7 to 8 mice per group. How it is done: (§1) FIGS. 15A-F show the effects of a mixture of two anti HER3 mAbs, in vivo on BxPC3 cell xenografts and in vitro. (FIGS. 15A-C) CD1-Nude mice were grafted subcutaneously with 5×10^6 BxPC3 cells. Once tumors became palpable (after 13 days), the mice were randomized into group of 8 mice and treated every 3 days for 5 weeks. The control group (CTRL) was injected intra-peritoneally (IP) with 200 μl PBS. The other groups were treated with mAb alone or in combination at a final concentration of 0.2 mg/0.2 ml of PBS per mouse. The mice were weighted once a week and the tumors measured twice a week. An average tumor size of 7-8 mice (+/−SEM) is shown. (FIGS. 15D-F) Proliferation assays using MTT were performed on BxPC-3. 5,000 cells per well were plated the day before and treated for 72 h with the indicated mAb treatment. Decreasing concentrations of the indicated mAb (alone or in combination) were used in medium supplemented with 1% serum and NRG (10 ng/ml).
All animal studies were approved by the Weizmann Institute's Review Board (IRB). Tumor bearing CD1/nude mice were randomized in groups of five-ten mice and injected subcutaneously in the right flank with cancer cells (3-5×10^6 per mouse depending on the cell line). mAbs were injected intraperitoneally at a total dose of 200 μg per mouse per injection, twice a week, for 5 weeks or until tumors reached the size of 1,500 mm^3. In experiments evaluating the effect of the TKI AZD-9291, Vehicle (Vehicle formulation: HPMC 0.5% (sigma Cat#56340), Tween80 0.1% (Sigma Cat #P8074 in water), Erlotinib at a dose of 50 mg/kg per injection, or AZD9291 at a dose of 1 or 5 mg/kg per injection were injected daily intraperitoneally. In one experiment (FIG. 16), mice were treated daily with Erlotinib at a dose of 50 mg/kg per injection until tumors reached a size of 800 mm^3 and only then were treated as indicated. Tumor volume and body weight were evaluated twice and once per week, respectively. Mice were euthanized when tumor size reached 1,500 mm^3. […] Survival of the tumor bearing mice was recorded and depicted by Kaplan-Meier analysis. […]

A further data set relates to BxPC3 cells. Description: MTT assay on BxPC3 cells in culture. The data set is classed as cell-based, human. The conditions noted are these: 3 days. As for the experimental part: as §1
To determine if the combination of NG33 mAb with another anti-HER3 mAb is more efficient than using NG33 alone, the combination of two mAbs, NG33 and XC252, was tested on several tumor cell lines, which were grafted subcutaneously (gastric: N87, lung: A549, pancreatic: BxPC3, ovarian: OVCAR-5, and head and neck: CAL-27, FIG. 14). This pilot was performed with 3 mice per group. Mice were injected twice a week with the mAb combination or with PBS. The best responder of these in vivo models for solid tumor growth was the BxPC3 xenograft model. […] This experiment was performed on 7 to 8 mice per group. The mice were treated every 3 days with PBS, each mAb alone or a mAb combination, for 5 weeks (0.2 mg/injection). […] In order to reinforce the in vivo data, the cytotoxicity of each mAb alone or in combination with NG33 was tested on BxPC3 cells in culture (FIGS. 15D, 15E and 15F). Decreasing concentrations of mAb were used and a MTT assay was performed following 3 days of treatment. […] On the contrary, XC252 used alone has a […] cytotoxic impact on BxPC3 proliferation leading to 60% inhibition of cell survival at high concentration.

T1 sequence (P21860 20-643 limits assumed): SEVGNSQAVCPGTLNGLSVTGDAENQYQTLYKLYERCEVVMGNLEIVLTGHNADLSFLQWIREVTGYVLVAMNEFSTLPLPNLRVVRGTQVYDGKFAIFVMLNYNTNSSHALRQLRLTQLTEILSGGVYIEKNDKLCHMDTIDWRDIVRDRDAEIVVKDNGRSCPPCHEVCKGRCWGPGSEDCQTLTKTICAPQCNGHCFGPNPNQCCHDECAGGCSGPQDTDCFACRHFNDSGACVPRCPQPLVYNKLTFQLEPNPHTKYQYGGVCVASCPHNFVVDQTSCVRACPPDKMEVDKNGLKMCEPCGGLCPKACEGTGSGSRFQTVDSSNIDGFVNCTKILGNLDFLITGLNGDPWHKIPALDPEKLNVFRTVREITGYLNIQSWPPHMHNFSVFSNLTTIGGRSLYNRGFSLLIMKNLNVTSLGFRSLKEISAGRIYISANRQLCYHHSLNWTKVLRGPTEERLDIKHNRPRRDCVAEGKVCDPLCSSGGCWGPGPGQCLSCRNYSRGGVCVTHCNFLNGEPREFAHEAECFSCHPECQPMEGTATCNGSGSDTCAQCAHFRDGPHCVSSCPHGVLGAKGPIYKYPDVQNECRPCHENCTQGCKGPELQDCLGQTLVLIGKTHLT
T1 sequence (P01857 99-330 partner limits assumed): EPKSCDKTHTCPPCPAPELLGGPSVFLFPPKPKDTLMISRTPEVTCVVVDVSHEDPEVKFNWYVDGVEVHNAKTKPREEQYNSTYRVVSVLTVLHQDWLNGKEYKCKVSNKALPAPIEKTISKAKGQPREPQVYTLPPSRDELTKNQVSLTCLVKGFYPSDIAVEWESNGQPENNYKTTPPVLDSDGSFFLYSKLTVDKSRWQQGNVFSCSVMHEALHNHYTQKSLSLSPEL
Description for EGFR phosphorylation: Cells were grown under specified conditions or treated as indicated. Following the cells were washed twice with cold PBS and scraped into lysis buffer [50 mM Hepes (pH 7.5), 10% glycerol, 150 mM NaCl, 1% Triton X-100, 1 mM EDTA, 1 mM EGTA, 10 mM NaF, 0.1 mM Na3VO4, and a complete protease inhibitor cocktail]. Thereafter, lysates were centrifuged at 14,000 g for 15 minutes at 4° C. The supernatant was used for subsequent procedures. Western blot analyses were conducted following protein separation using gel electrophoresis and transfer to nitrocellulose membranes. Immunoblotting was performed according to the antibody manufacturers' recommendation. Blocking was done using 5% milk in PBST (0.5% Tween20 Sigma Cat#P9416). Antibody binding to membrane blots was detected using horseradish peroxidase-secondary antibodies (Jackson ImmunoResearch Laboratories), followed by treatment with ECL Western blotting detection reagents (GE Healthcare).

Take `C=CC(=O)Nc1cc(Nc2nccc(-c3cn(C)c4ccccc34)n2)c(OC)cc1N(C)CCN(C)C` [AZD-9291]: in the data set on H1975 NSCLC cells (AZD9291 5 mg/kg/day or triple mAbs), the “inhibition of H1975 tumor growth” value is listed as “comparably inhibited growth of the erlotinib-resistant human NSCLC”. Besides, the body weight gain entry in the data set on H1975 NSCLC cells (H1975 tumor-bearing mice, AZD9291 5 mg/kg/day) is “slightly inhibited body weight gain compared with the triple mAb combination”. Moreover, the “EGFR phosphorylation in PC9ER-AZDR cells on exposure” value in the data set with EGFR phosphorylation is “EGFR remained phosphorylated”. In addition, the “survival / sensitivity of PC9ER-AZDR cells (MTT)” value with PC9ER-AZDR cells was “lost sensitivity to AZD-9291”.

B1: NG140: anti-HER3 mAb; light chain CDRs SEQ ID NOs: 13-15, heavy chain CDRs 16-18 (antibody, V domains shown)
VH: QVQLKESGPGLVKPSQSLSLTCSVTGYSITSGYYWNWIRQFPGNKLEWMGSIYYDGSNNYNPSLKNRISVTRDTSKNQFFLKLNSVTTEDTATYYCARDYDVGYAMDYWGQGASVTVSS
VL: DIVLTQSSSYLSVSLGGRVTITCKASDHINNWLAWYQQKPGNAPRLLISGATSLETGVPSRFSGSGSGKDYTLSITSLQTEDVATYYCQQYWSIPWTFGGGTKLEIK
modifications: VH chain of NG140 polypeptide; VL chain of NG140 polypeptide
For B1, the “effect on binding of Lumi4(Tb)-labeled NG33 to IgB3” value in the data set with IgB3 is listed as “did not alter NG33 binding”. The “effect on BxPC3 xenograft tumor growth” value in the data set on BxPC3 xenografts is reported as “no statistically significant ability to decrease tumor growth”. Further, the “effect on BxPC3 proliferation/survival (in words)” value in the data set with BxPC3 cells is reported as “did not interfere with cell proliferation”.
